What was measured:
Format in all cases: in vivo
[1] = system: Beet Armyworm (Spodoptera exigua, LAPHEG); assay: Bioassays on Beet Armyworm (BAW), 128-well diet tray assay; conditions: Spodoptera exigua; Beet Armyworm; rating class; read-out: BAW
Method in brief: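 Eight diet wells per compound were treated at 50 μg/cm^2 (acetone-water 90:10), dried, then infested with 1–5 second-instar larvae each. After five to seven days at 25 °C under 14:10 photoperiod, mortality was scored and averaged across wells.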

[2] = system: Cabbage Looper (Trichoplusia ni, TRIPNI); assay: Bioassays on Cabbage Looper (CL), 128-well diet tray assay; conditions: Trichoplusia ni; Cabbage Looper; rating class; read-out: CL
Method in brief: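 One to five second-instar larvae per well on artificial diet surface-treated with 50 μg/cm^2 test molecule (applied in 90:10 acetone-water, dried). Held 5–7 days at 25° C, 14:10 light-dark; percent mortality recorded per well and averaged over eight wells.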

[3] = system: Yellow Fever Mosquito (Aedes aegypti, AEDSAE); conditions: Yellow Fever Mosquito; rating class
Method in brief: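 Mortality after 3 days at room temperature is the read-out, scored well by well and converted to a rating. Test molecules came from 4000 ppm stocks in DMSO, further diluted in 90:10 water/acetone, and were exposed to roughly 1-day-old larvae suspended in liver-powder water.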

For `Cc1c(N)ccc(Br)c1NC(=O)c1cc(NC(=O)[C@H]2[C@H](c3ccc(F)c(C(F)(F)F)c3)C2(Cl)Cl)ccc1Cl` [F1684, N-(3-Amino-6-bromo-2-methylphenyl)-2-chloro-5-((1R,3R)-2,2-dichloro-3-(4-fluoro-3-(trifluoromethyl)phenyl)cyclopropane-1-carboxamido)benzamide], the pest or weed control at 50 µg/cm2 [1] was 50 to 100%, the pest or weed control at 50 µg/cm2 [2] was 50 to 100% and the YFM [3] was “B (More than 0 – Less than 80)”.

`O=C(Nc1ccc(F)c(NC(=O)C(Cl)Cl)c1F)c1cc(NC(=O)[C@H]2[C@H](c3cc(Cl)c(Cl)c(Cl)c3)C2(Cl)Cl)ccc1Cl` [F1685, 2-Chloro-5-((1R,3R)-2,2-dichloro-3-(3,4,5-trichlorophenyl)cyclopropane-1-carboxamido)-N-(3-(2,2-dichloroacetamido)-2,4-difluorophenyl)benzamide] was tested, and the pest or weed control at 50 µg/cm2 [1] was 50 to 100%, the pest or weed control at 50 µg/cm2 [2] was 50 to 100% and the YFM [3] was “A (80–100)”.

For `O=C(Nc1ccc(F)c(NC(=O)C(F)(F)Cl)c1F)c1cc(NC(=O)[C@H]2[C@H](c3cc(Cl)c(Cl)c(Cl)c3)C2(Cl)Cl)ccc1Cl` [F1686, 2-Chloro-N-(3-(2-chloro-2,2-difluoroacetamido)-2,4-difluorophenyl)-5-((1R,3R)-2,2-dichloro-3-(3,4,5-trichlorophenyl)cyclopropane-1-carboxamido)benzamide], the pest or weed control at 50 µg/cm2 [1] was 50 to 100%, the pest or weed control at 50 µg/cm2 [2] was 50 to 100% and the YFM [3] was “A (80–100)”.

With `Nc1c(F)ccc(NC(=O)c2cc(NC(=O)[C@H]3[C@H](c4cc(F)cc(C(F)(F)F)c4)C3(Cl)Cl)ccc2Cl)c1F` [F1687, N-(3-Amino-2,4-difluorophenyl)-2-chloro-5-((1R,3R)-2,2-dichloro-3-(3-fluoro-5-(trifluoromethyl)phenyl)cyclopropane-1-carboxamido)benzamide] the pest or weed control at 50 µg/cm2 [1] was 50 to 100%, the pest or weed control at 50 µg/cm2 [2] was 50 to 100% and the YFM [3] was “A (80–100)”.

`Cc1c(NC(=O)c2cc(NC(=O)[C@H]3[C@H](c4ccc(F)c(C(F)(F)F)c4)C3(Cl)Cl)ccc2Cl)ccc(Br)c1[N+](=O)[O-]` [F1688, N-(4-Bromo-2-methyl-3-nitrophenyl)-2-chloro-5-((1R,3R)-2,2-dichloro-3-(4-fluoro-3-(trifluoromethyl)phenyl)cyclopropane-1-carboxamido)benzamide] was tested, and the pest or weed control at 50 µg/cm2 [1] was 50 to 100%, the pest or weed control at 50 µg/cm2 [2] was 50 to 100% and the YFM [3] was “A (80–100)”.

With `CO[C@H](C)C(=O)Nc1c(F)ccc(NC(=O)c2cc(NC(=O)[C@H]3[C@H](c4ccc(F)c(C(F)(F)F)c4)C3(Cl)Cl)ccc2Cl)c1F` [F1689, 2-Chloro-5-((1R,3R)-2,2-dichloro-3-(4-fluoro-3-(trifluoromethyl)phenyl)cyclopropane-1-carboxamido)-N-(2,4-difluoro-3-((R)-2-methoxypropanamido)phenyl)benzamide] the pest or weed control at 50 µg/cm2 [1] was 50 to 100%, the pest or weed control at 50 µg/cm2 [2] was 50 to 100% and the YFM [3] was “B (More than 0 – Less than 80)”.

For `Cc1c(NC(=O)c2cc(NC(=O)[C@H]3[C@H](c4ccc(F)c(C(F)(F)F)c4)C3(Cl)Cl)ccc2Cl)ccc(Br)c1N` [F1690, N-(3-Amino-4-bromo-2-methylphenyl)-2-chloro-5-((1R,3R)-2,2-dichloro-3-(4-fluoro-3-(trifluoromethyl)phenyl)cyclopropane-1-carboxamido)benzamide], the pest or weed control at 50 µg/cm2 [1] was 50 to 100%, the pest or weed control at 50 µg/cm2 [2] was 50 to 100% and the YFM [3] was “A (80–100)”.

For `O=C(Nc1ccc(F)c(NC(=O)[C@H]2CCCO2)c1F)c1cc(NC(=O)[C@H]2[C@H](c3ccc(F)c(C(F)(F)F)c3)C2(Cl)Cl)ccc1Cl` [F1691, (R)—N-(3-(2-Chloro-5-((1R,3R)-2,2-dichloro-3-(4-fluoro-3-(trifluoromethyl)phenyl)cyclopropane-1-carboxamido)benzamido)-2,6-difluorophenyl)tetrahydrofuran-2-carboxamide], the pest or weed control at 50 µg/cm2 [1] was 50 to 100%, the pest or weed control at 50 µg/cm2 [2] was 50 to 100% and the YFM [3] was “B (More than 0 – Less than 80)”.

`O=C(Nc1ccc(F)c(NC(=O)[C@@H]2CCCO2)c1F)c1cc(NC(=O)[C@H]2[C@H](c3ccc(F)c(C(F)(F)F)c3)C2(Cl)Cl)ccc1Cl` [F1692, (S)—N-(3-(2-Chloro-5-((1R,3R)-2,2-dichloro-3-(4-fluoro-3-(trifluoromethyl)phenyl)cyclopropane-1-carboxamido)benzamido)-2,6-difluorophenyl)tetrahydrofuran-2-carboxamide] was tested, and the pest or weed control at 50 µg/cm2 [1] was 50 to 100%, the pest or weed control at 50 µg/cm2 [2] was 50 to 100% and the YFM [3] was “B (More than 0 – Less than 80)”.

For `O=C(Nc1ccc(F)c(NC(=O)C2CCCO2)c1F)c1cc(NC(=O)[C@H]2[C@H](c3cc(F)cc(C(F)(F)F)c3)C2(Cl)Cl)ccc1Cl` (stereo partly drawn) [F1706, N-(3-(2-Chloro-5-((1R,3R)-2,2-dichloro-3-(3-fluoro-5-(trifluoromethyl)phenyl)cyclopropane-1-carboxamido)benzamido)-2,6-difluorophenyl)tetrahydrofuran-2-carboxamide], the pest or weed control at 50 µg/cm2 [1] was 50 to 100%, the pest or weed control at 50 µg/cm2 [2] was 50 to 100% and the YFM [3] was “A (80–100)”.

In the case of `O=C(Nc1ccc(F)c(NC(=O)C(F)(F)C(F)F)c1F)c1cc(NC(=O)[C@H]2[C@H](c3cc(F)cc(C(F)(F)F)c3)C2(Cl)Cl)ccc1Cl` [F1707, 2-Chloro-5-((1R,3R)-2,2-dichloro-3-(3-fluoro-5-(trifluoromethyl)phenyl)cyclopropane-1-carboxamido)-N-(2,4-difluoro-3-(2,2,3,3-tetrafluoropropanamido)phenyl)benzamide], the pest or weed control at 50 µg/cm2 [1] is reported as 50 to 100%, the pest or weed control at 50 µg/cm2 [2] is reported as 50 to 100% and the YFM [3] is reported as “A (80–100)”.

In the case of `CCC(=O)Nc1c(F)ccc(NC(=O)c2cc(NC(=O)[C@H]3[C@H](c4cc(F)cc(C(F)(F)F)c4)C3(Cl)Cl)ccc2Cl)c1F` [F1709, 2-Chloro-5-((1R,3R)-2,2-dichloro-3-(3-fluoro-5-(trifluoromethyl)phenyl)cyclopropane-1-carboxamido)-N-(2,4-difluoro-3-propionamidophenyl)benzamide], the pest or weed control at 50 µg/cm2 [1] is reported as 50 to 100%, the pest or weed control at 50 µg/cm2 [2] is reported as 50 to 100% and the YFM [3] is reported as “A (80–100)”.

For `COC(C)C(=O)Nc1c(F)ccc(NC(=O)c2cc(NC(=O)[C@H]3[C@H](c4ccc(F)c(C(F)(F)F)c4)C3(Cl)Cl)ccc2Cl)c1F` (stereo partly drawn) [F1712, 2-Chloro-5-((1R,3R)-2,2-dichloro-3-(4-fluoro-3-(trifluoromethyl)phenyl)cyclopropane-1-carboxamido)-N-(2,4-difluoro-3-(2-methoxypropanamido)phenyl)benzamide], the pest or weed control at 50 µg/cm2 [1] was 50 to 100%, the pest or weed control at 50 µg/cm2 [2] was 50 to 100% and the YFM [3] was “A (80–100)”.

In the case of `O=C(Nc1ccc(F)c(NC(=O)C(F)(F)Cl)c1F)c1cc(NC(=O)[C@H]2[C@H](c3ccc(Cl)c(C(F)(F)F)c3)C2(Cl)Cl)ccc1Cl` [F1719, 2-Chloro-N-(3-(2-chloro-2,2-difluoroacetamido)-2,4-difluorophenyl)-5-((1R,3R)-2,2-dichloro-3-(4-chloro-3-(trifluoromethyl)phenyl)cyclopropane-1-carboxamido)benzamide], the pest or weed control at 50 µg/cm2 [1] is reported as 50 to 100%, the pest or weed control at 50 µg/cm2 [2] is reported as 50 to 100% and the YFM [3] is reported as “A (80–100)”.

In the case of `CO[C@@H](C)C(=O)Nc1c(F)ccc(NC(=O)c2cc(NC(=O)[C@H]3[C@H](c4ccc(F)c(C(F)(F)F)c4)C3(Cl)Cl)ccc2Cl)c1F` [F1720, 2-Chloro-5-((1R,3R)-2,2-dichloro-3-(4-fluoro-3-(trifluoromethyl)phenyl)cyclopropane-1-carboxamido)-N-(2,4-difluoro-3-((S)-2-methoxypropanamido)phenyl)benzamide], the pest or weed control at 50 µg/cm2 [1] is reported as 50 to 100%, the pest or weed control at 50 µg/cm2 [2] is reported as 50 to 100% and the YFM [3] is reported as “A (80–100)”.

With `O=C(Nc1ccccc1)c1cc(NC(=O)[C@H]2[C@H](c3ccc(F)c(C(F)(F)F)c3)C2(Cl)Cl)c(F)cc1Cl` [F1723, 2-Chloro-5-((1R,3R)-2,2-dichloro-3-(4-fluoro-3-(trifluoromethyl)phenyl)cyclopropane-1-carboxamido)-4-fluoro-N-phenylbenzamide] the pest or weed control at 50 µg/cm2 [1] was 50 to 100%, the pest or weed control at 50 µg/cm2 [2] was 50 to 100% and the YFM [3] was “A (80–100)”.

For `O=C(Nc1ccc(F)cc1)c1cc(NC(=O)[C@H]2[C@H](c3ccc(F)c(C(F)(F)F)c3)C2(Cl)Cl)c(F)cc1Cl` [F1725, 2-Chloro-5-((1R,3R)-2,2-dichloro-3-(4-fluoro-3-(trifluoromethyl)phenyl)cyclopropane-1-carboxamido)-4-fluoro-N-(4-fluorophenyl)benzamide], the pest or weed control at 50 µg/cm2 [1] was 50 to 100%, the pest or weed control at 50 µg/cm2 [2] was 50 to 100% and the YFM [3] was “A (80–100)”.

`O=C(Nc1ccc(F)cc1F)c1cc(NC(=O)[C@H]2[C@H](c3ccc(F)c(C(F)(F)F)c3)C2(Cl)Cl)c(F)cc1Cl` [F1727, 2-Chloro-5-((1R,3R)-2,2-dichloro-3-(4-fluoro-3-(trifluoromethyl)phenyl)cyclopropane-1-carboxamido)-N-(2,4-difluorophenyl)-4-fluorobenzamide] was tested, and the pest or weed control at 50 µg/cm2 [1] was 50 to 100%, the pest or weed control at 50 µg/cm2 [2] was 50 to 100% and the YFM [3] was “A (80–100)”.

In the case of `O=C(Nc1ccc(F)c(NC(=O)C(Cl)CCl)c1F)c1cc(NC(=O)[C@H]2[C@H](c3ccc(F)c(C(F)(F)F)c3)C2(Cl)Cl)ccc1Cl` (stereo partly drawn) [F1728, 2-Chloro-5-((1R,3R)-2,2-dichloro-3-(4-fluoro-3-(trifluoromethyl)phenyl)cyclopropane-1-carboxamido)-N-(3-(2,3-dichloropropanamido)-2,4-difluorophenyl)benzamide], the pest or weed control at 50 µg/cm2 [1] is reported as 50 to 100%, the pest or weed control at 50 µg/cm2 [2] is reported as 50 to 100% and the YFM [3] is reported as “B (More than 0 – Less than 80)”.

Source: patent US20250228239A1, “MOLECULES HAVING PESTICIDAL UTILITY, AND INTERMEDIATES, COMPOSITIONS, AND PROCESSES, RELATED THERETO” (priority 2024, published 2025)
